Source: patent US10780090B2, “Heteroaryl compounds useful as inhibitors of SUMO activating enzyme” (Millennium Pharmaceuticals, Inc., priority 2014, dated 2020)

Target: recombinant human SAE enzyme (Homo sapiens (Human), UniProt Q9UBT2)
Assay: SAE HTRF enzyme assay
Assay type: biochemical
Conditions: for inhibition at 0.111 µM: read-out: Percent Inhibition
Outline: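 Human SAE (0.11 nM) with 0.5 μM ATP, 0.125 μM Sumo-Flag and 0.01 μM Ubc9-GST in HEPES pH 7.5, 5 mM MgCl2, 250 μM GSH; 105 min at 24 °C. Stopped with EDTA; HTRF read after 2 h with Eu-anti-Flag and APC-anti-GST. Percent inhibition or IC50 reported.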

[1] = SAE inhibition at compound concentration 0.111 μM
[2] = SAE inhibition, class symbols, legend in nM

recombinant human SAE enzyme, sequence (Q9UBT2 whole entry): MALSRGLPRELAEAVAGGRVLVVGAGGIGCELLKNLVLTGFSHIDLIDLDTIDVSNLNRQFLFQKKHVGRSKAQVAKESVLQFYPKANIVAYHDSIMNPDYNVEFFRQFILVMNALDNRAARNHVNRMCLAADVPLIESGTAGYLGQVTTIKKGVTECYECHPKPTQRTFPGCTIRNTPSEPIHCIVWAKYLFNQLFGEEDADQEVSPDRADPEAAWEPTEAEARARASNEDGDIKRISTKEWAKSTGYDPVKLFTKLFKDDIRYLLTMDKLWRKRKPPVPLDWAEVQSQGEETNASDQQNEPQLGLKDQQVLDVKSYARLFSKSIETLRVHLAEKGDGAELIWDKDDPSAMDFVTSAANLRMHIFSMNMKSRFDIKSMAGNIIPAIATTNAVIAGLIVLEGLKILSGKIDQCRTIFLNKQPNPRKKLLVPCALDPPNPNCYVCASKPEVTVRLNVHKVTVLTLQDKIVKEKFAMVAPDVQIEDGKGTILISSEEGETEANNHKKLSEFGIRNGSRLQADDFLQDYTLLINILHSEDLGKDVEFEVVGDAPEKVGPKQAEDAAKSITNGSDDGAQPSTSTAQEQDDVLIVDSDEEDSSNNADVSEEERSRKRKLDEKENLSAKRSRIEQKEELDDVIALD
recombinant human SAE enzyme, sequence (Q9UBE0 whole entry partner): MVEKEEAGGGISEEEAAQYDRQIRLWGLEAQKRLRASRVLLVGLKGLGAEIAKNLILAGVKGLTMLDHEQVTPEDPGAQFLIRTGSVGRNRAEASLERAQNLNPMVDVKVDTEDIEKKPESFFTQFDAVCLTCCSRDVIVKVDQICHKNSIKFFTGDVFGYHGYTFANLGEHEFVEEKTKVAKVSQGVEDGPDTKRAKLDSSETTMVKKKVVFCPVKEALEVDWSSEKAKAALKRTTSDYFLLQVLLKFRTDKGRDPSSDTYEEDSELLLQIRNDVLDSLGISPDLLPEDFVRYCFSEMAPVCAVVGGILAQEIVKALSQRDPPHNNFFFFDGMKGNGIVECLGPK

SMILES	Percent Inhibition [1] [%]	IC50 [2] [nM]	Percent Inhibition (Concentration 0.111 μM)	IC50 (class symbols A/B/C) [nM]	inhibition at 0.111 µM (Concentration 0.111 μM) [%]
CN1Cc2ccc(Cl)cc2[C@@H]1c1cc(C(=O)c2cncnc2N[C@@H]2C[C@H](COS(N)(=O)=O)[C@@H](O)C2)sc1Cl (single isomer, unassigned) [I-284a, [(1R,2S,4R)-4-{[5-({5-chloro-4-[(1R)-6-chloro-2-methyl-2,3-dihydro-1H-isoindol-1-yl]-2-thienyl}carbonyl)pyrimidin-4-yl]amino}-2-hydroxycyclopentyl]methyl sulfamate or [(1R,2S,4R)-4-{[5-({5-chloro-4-[(1S)-6-chloro-2-methyl-2,3-dihydro-1H-isoindol-1-yl]-2-thienyl}carbonyl)pyrimidin-4-yl]amino}-2-hydroxycyclopentyl]methyl sulfamate]	49	100 to 1000	–	–	–
NS(=O)(=O)OC[C@H]1C[C@@H](Nc2ncncc2C(=O)c2cc([C@@H]3OCC(F)(F)c4ccc(Cl)cc43)cs2)C[C@@H]1O (single isomer, unassigned) [I-289a, [(1R,2S,4R)-4-{[5-({4-[(1R)-7-chloro-4,4-difluoro-3,4-dihydro-1H-isochromen-1-yl]-2-thienyl}carbonyl)pyrimidin-4-yl]amino}-2-hydroxycyclopentyl]methyl sulfamate or [(1R,2S,4R)-4-{[5-({4-[(1S)-7-chloro-4,4-difluoro-3,4-dihydro-1H-isochromen-1-yl]-2-thienyl}carbonyl)pyrimidin-4-yl]amino}-2-hydroxycyclopentyl]methyl sulfamate]	16	100 to 1000	–	–	–
NS(=O)(=O)OC[C@H]1C[C@@H](Nc2ncncc2C(=O)c2cc([C@@]3(c4ccccc4)CCCO3)cs2)C[C@@H]1O (single isomer, unassigned) [I-32b, [(1R,2S,4R)-2-hydroxy-4-{[5-({4-[(2S)-2-phenyltetrahydrofuran-2-yl]-2-thienyl}carbonyl)pyrimidin-4-yl]amino}cyclopentyl]methyl sulfamate or [(1R,2S,4R)-2-hydroxy-4-{[5-({4-[(2R)-2-phenyltetrahydrofuran-2-yl]-2-thienyl}carbonyl)pyrimidin-4-yl]amino}cyclopentyl]methyl sulfamate]	–	–	90	10 to 100	–
NS(=O)(=O)OC[C@H]1C[C@@H](Nc2ncncc2C(=O)c2cc([C@@H]3CCc4ccc(Cl)cc43)cs2)C[C@@H]1O (single isomer, unassigned) [I-349a, [(1R,2S,4R)-4-{[5-({4-[(1R)-6-chloro-2,3-dihydro-1H-inden-1-yl]-2-thienyl}carbonyl)pyrimidin-4-yl]amino}-2-hydroxycyclopentyl]methyl sulfamate or [(1R,2S,4R)-4-{[5-({4-[(1S)-6-chloro-2,3-dihydro-1H-inden-1-yl]-2-thienyl}carbonyl)pyrimidin-4-yl]amino}-2-hydroxycyclopentyl]methyl sulfamate]	42	100 to 1000	–	–	–
CC(C)(C)OC(=O)N1CCc2ccc(Cl)cc2[C@@H]1c1cc(C(=O)c2cncnc2N[C@@H]2C[C@H](COS(N)(=O)=O)[C@@H](O)C2)sc1Cl.CC(C)(C)OC(=O)N1CCc2ccc(Cl)cc2[C@H]1c1cc(C(=O)c2cncnc2N[C@@H]2C[C@H](COS(N)(=O)=O)[C@@H](O)C2)sc1Cl (mixture of isomers) [I-336, tert-butyl (1R)-7-chloro-1-(2-chloro-5-{[4-({(1R,3S,4R)-3-hydroxy-4-[(sulfamoyloxy)methyl]cyclopentyl}amino)pyrimidin-5-yl]carbonyl}-3-thienyl)-3,4-dihydroisoquinoline-2(1H)-carboxylate and tert-butyl (1S)-7-chloro-1-(2-chloro-5-{[4-({(1R,3S,4R)-3-hydroxy-4-[(sulfamoyloxy)methyl]cyclopentyl}amino)pyrimidin-5-yl]carbonyl}-3-thienyl)-3,4-dihydroisoquinoline-2(1H)-carboxylate]	15	100 to 1000	–	–	–
N[C@@H](c1cccc(Br)n1)c1cc(C(=O)c2cncnc2N[C@@H]2C[C@H](COS(N)(=O)=O)[C@@H](O)C2)sc1Cl (single isomer, unassigned) [I-18a, [(1R,2S,4R)-4-{[5-({4-[(R)-amino(6-bromopyridin-2-yl)methyl]-5-chloro-2-thienyl}carbonyl)pyrimidin-4-yl]amino}-2-hydroxycyclopentyl]methyl sulfamate or [(1R,2S,4R)-4-{[5-({4-[(S)-amino(6-bromopyridin-2-yl)methyl]-5-chloro-2-thienyl}carbonyl)pyrimidin-4-yl]amino}-2-hydroxycyclopentyl]methyl sulfamate]	–	–	82	10 to 100	–
Cc1sc(C(=O)c2cncnc2N[C@@H]2C[C@H](COS(N)(=O)=O)[C@@H](O)C2)cc1[C@H]1OCCc2ccccc21 [I-256a, [(1R,2S,4R)-4-{[5-({4-[(1S)-3,4-dihydro-1H-isochromen-1-yl]-5-methyl-2-thienyl}carbonyl)pyrimidin-4-yl]amino}-2-hydroxycyclopentyl]methyl sulfamate]	–	–	–	< 10	94
NS(=O)(=O)OC[C@H]1C[C@@H](Nc2ncncc2C(=O)c2cc(COc3cccc(Cl)c3)cs2)C[C@@H]1O [I-120, [(1R,2S,4R)-4-{[5-({4-[(3-chlorophenoxy)methyl]-2-thienyl}carbonyl)pyrimidin-4-yl]amino}-2-hydroxycyclopentyl]methyl sulfamate]	–	–	–	< 10	97
Cc1sc(C(=O)c2cncnc2N[C@@H]2C[C@H](COS(N)(=O)=O)[C@@H](O)[C@H]2O)cc1[C@@H]1OCCc2ccccc21 (single isomer, unassigned) [I-250a, [(1R,2R,3S,4R)-4-{[5-({4-[(1R)-3,4-dihydro-1H-isochromen-1-yl]-5-methyl-2-thienyl}carbonyl)pyrimidin-4-yl]amino}-2,3-dihydroxycyclopentyl]methyl sulfamate or [(1R,2R,3S,4R)-4-{[5-({4-[(1S)-3,4-dihydro-1H-isochromen-1-yl]-5-methyl-2-thienyl}carbonyl)pyrimidin-4-yl]amino}-2,3-dihydroxycyclopentyl]methyl sulfamate]	–	–	97	< 10	–
NS(=O)(=O)OC[C@H]1C[C@@H](Nc2ncncc2C(=O)c2cc([C@@H]3NCCc4ccc(Br)cc43)c(Cl)s2)C[C@@H]1O (single isomer, unassigned) [I-251a, [(1R,2S,4R)-4-{[5-({4-[(1R)-7-bromo-1,2,3,4-tetrahydroisoquinolin-1-yl]-5-chloro-2-thienyl}carbonyl)pyrimidin-4-yl]amino}-2-hydroxycyclopentyl]methyl sulfamate or [(1R,2S,4R)-4-{([5-({4-[(1S)-7-bromo-1,2,3,4-tetrahydroisoquinolin-1-yl]-5-chloro-2-thienyl}carbonyl)pyrimidin-4-yl]amino}-2-hydroxycyclopentyl]methyl sulfamate]	–	–	100	< 10	–
Cc1sc(C(=O)c2cncnc2N[C@@H]2C[C@H](COS(N)(=O)=O)[C@@H](O)C2)cc1[C@H](O)c1cccc(Cl)c1 (single isomer, unassigned) [I-11b, [(1R,2S,4R)-4-{[5-({4-[(R)-(3-chlorophenyl)(hydroxy)methyl]-5-methyl-2-thienyl}carbonyl)pyrimidin-4-yl]amino}-2-hydroxycyclopentyl]methyl sulfamate or [(1R,2S,4R)-4-{[5-({4-[(S)-(3-chlorophenyl)(hydroxy)methyl]-5-methyl-2-thienyl}carbonyl)pyrimidin-4-yl]amino}-2-hydroxycyclopentyl]methyl sulfamate]	–	–	99	< 10	–
Cc1sc(C(=O)c2cncnc2N[C@@H]2C[C@H](COS(N)(=O)=O)[C@@H](O)C2)cc1Cc1cccc(Br)c1 [I-52, {(1R,2S,4R)-4-[(5-{[4-(3-bromobenzyl)-5-methyl-2-thienyl]carbonyl}pyrimidin-4-yl)amino]-2-hydroxycyclopentyl}methyl sulfamate]	–	–	–	< 10	99
NS(=O)(=O)OC[C@H]1C[C@@H](Nc2ncncc2C(=O)c2cc(CO)co2)C[C@@H]1O [I-216, [(1R,2S,4R)-2-Hydroxy-4-{(5-[4-(hydroxymethyl)-2-furoyl]pyrimidin-4-yl}amino)cyclopentyl]methyl sulfamate]	–	–	–	100 to 1000	36
NS(=O)(=O)OC[C@H]1C[C@@H](Nc2ncncc2C(=O)c2cc(Cc3cccc(Cl)c3)c(CO)s2)C[C@@H]1O [I-35, {(1R,2S,4R)-4-[(5-{[4-(3-chlorobenzyl)-5-(hydroxymethyl)-2-thienyl]carbonyl}pyrimidin-4-yl)amino]-2-hydroxycyclopentyl}methyl sulfamate]	–	–	–	< 10	98
Cc1sc(C(=O)c2cncnc2N[C@@H]2C[C@H](COS(N)(=O)=O)[C@@H](O)C2)cc1Sc1cccc(Cl)c1 [I-143, [(1R,2S,4R)-4-{[5-({4-[(3-chlorophenyl)sulfanyl]-5-methyl-2-thienyl}carbonyl)pyrimidin-4-yl]amino}-2-hydroxycyclopentyl]methyl sulfamate]	–	–	–	< 10	94
NS(=O)(=O)OC[C@H]1C[C@@H](Nc2ncncc2C(=O)c2cc([C@@]3(C4CCCCC4)CCCO3)cs2)C[C@@H]1O (mixture of isomers) [I-166, [(1R,2S,4R)-4-{[5-({4-[(2S)-2-cyclohexyltetrahydrofuran-2-yl]-2-thienyl}carbonyl)pyrimidin-4-yl]amino}-2-hydroxycyclopentyl]methyl sulfamate and [(1R,2S,4R)-4-{[5-({4-[(2R)-2-cyclohexyltetrahydrofuran-2-yl]-2-thienyl}carbonyl)pyrimidin-4-yl]amino}-2-hydroxycyclopentyl]methyl sulfamate]	–	–	93	10 to 100	–
